Test results reported in ChEMBL document CHEMBL1201862, “PubChem BioAssay data set” (2004).
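Cells were grown in 96-well plates and exposed to each compound for 48 hours at five concentrations; endpoints were interpolated linearly between bracketing concentrations, or set to the highest concentration if not reached. At the GI50, growth is halved.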 The source made the active and inactive calls. Cut-off read from the data, not from the text of the source: active = GI50 up to about 1.1 µM and inactive = higher.

Assays:
Assay in all cases: NCI-60 cell line screen, 48 h
OVCAR-3 = system: OVCAR-3
RPMI-8226 = system: RPMI-8226
HCT-15 = system: HCT-15
HL-60 = system: HL-60
786-0 = system: 786-0
K562 = system: K562
OVCAR-5 = system: OVCAR-5
M14 = system: M14
UO-31 = system: UO-31
SNB-19 = system: SNB-19
ACHN = system: ACHN
SK-MEL-2 = system: SK-MEL-2
MDA-N = system: MDA-N
SK-MEL-28 = system: SK-MEL-28
HOP-62 = system: HOP-62
SF-268 = system: SF-268
KM12 = system: KM12
BT-549 = system: BT-549
Malme-3M = system: Malme-3M
MDA-MB-231 = system: MDA-MB-231

Row | Compound | GI50 (OVCAR-3) | GI50 (RPMI-8226) | GI50 (HCT-15) | GI50 (HL-60) | GI50 (786-0) | GI50 (K562) | GI50 (OVCAR-5) | GI50 (M14) | GI50 (UO-31) | GI50 (SNB-19) | GI50 (ACHN) | GI50 (SK-MEL-2) | GI50 (MDA-N) | GI50 (SK-MEL-28) | GI50 (HOP-62) | GI50 (SF-268) | GI50 (KM12) | GI50 (BT-549) | GI50 (Malme-3M) | GI50 (MDA-MB-231)
1 | Oc1cccc2cc(Cl)cnc12 | 2.99 µM (inactive) | 4.91 µM (inactive) | 3.82 µM | 1.08 µM (active) | 23.6 µM (inactive) | 3.87 µM (inactive) | 28 µM (inactive) | 9.06 µM (inactive) | 8.09 µM (inactive) | > 32.4 µM (inactive) | 8.95 µM (inactive) | 40.8 µM (inactive) | 31.9 µM (inactive) | 58.7 µM (inactive) | 5.77 µM (inactive) | 3.85 µM (inactive) | 14.8 µM (inactive) | 22.6 µM (inactive) | > 30.3 µM (inactive) | 9.68 µM (inactive)
2 | COC(=O)C1CC2C=CC1N(C(=O)OCc1ccccc1)C2 (centres undefined) | > 100 µM (inactive) | > 100 µM (inactive) | > 100 µM | > 100 µM (inactive) | > 100 µM (inactive) | > 100 µM (inactive) | > 100 µM (inactive) | > 100 µM (inactive) | > 100 µM (inactive) | > 100 µM (inactive) | > 100 µM (inactive) | > 100 µM (inactive) | > 100 µM (inactive) | > 100 µM (inactive) | > 100 µM (inactive) | > 100 µM (inactive) | > 100 µM (inactive) | > 100 µM (inactive) | 26 µM (inactive) | > 100 µM (inactive)
3 | Nc1n[nH]c(N)n1 [GUANAZOLE] | > 10000 µM (inactive) | 4670 µM (inactive) | 7670 µM | 1420 µM (inactive) | 2580 µM (inactive) | 7110 µM (inactive) | 4980 µM (inactive) | 3310 µM (inactive) | 7030 µM (inactive) | 9980 µM (inactive) | 1890 µM (inactive) | > 9790 µM (inactive) | 8570 µM (inactive) | > 6150 µM (inactive) | 2360 µM (inactive) | 5740 µM (inactive) | 8890 µM (inactive) | > 6490 µM (inactive) | 9100 µM (inactive) | > 10000 µM (inactive)
4 | COc1ccc(N2C(=O)C3c4[nH]c5ccc(OCc6ccccc6)cc5c4C4CCC(C(C)C)CC4C3C2=O)cc1 (centres undefined) | > 58.5 µM (inactive) | > 72.6 µM (inactive) | > 100 µM | 1.78 µM (inactive) | 8.11 µM (inactive) | 16.7 µM (inactive) | > 40 µM (inactive) | > 48.6 µM (inactive) | > 57.1 µM (inactive) | 9.33 µM (inactive) | 10.8 µM (inactive) | 15.2 µM (inactive) | > 100 µM (inactive) | > 100 µM (inactive) | 8.63 µM (inactive) | 17.2 µM (inactive) | > 100 µM (inactive) | 28.6 µM (inactive) | 21 µM (inactive) | 10.5 µM (inactive)
5 | CC1=NN(C(=O)c2ccccc2O)C(c2ccccc2Cl)C1C(=O)Nc1ccccc1 (centres undefined) | 0.143 µM (active) | 0.0726 µM (active) | 0.0303 µM | 0.161 µM (active) | < 0.0457 µM (active) | < 0.0235 µM (active) | 0.458 µM (active) | 0.054 µM (active) | < 0.0226 µM (active) | 0.0306 µM (active) | 0.0238 µM (active) | 4.74 µM (inactive) | < 0.0205 µM (active) | 40.4 µM (inactive) | 0.262 µM (active) | < 0.01 µM (active) | 0.107 µM (active) | < 0.0256 µM (active) | 0.0565 µM (active) | 0.647 µM (active)
6 | CCN(CCCN(CC)C(=O)Nc1ccccc1)C(=O)Nc1ccccc1 | > 100 µM (inactive) | > 100 µM (inactive) | > 100 µM | > 100 µM (inactive) | > 100 µM (inactive) | > 100 µM (inactive) | > 100 µM (inactive) | > 100 µM (inactive) | > 100 µM (inactive) | > 100 µM (inactive) | > 100 µM (inactive) | > 100 µM (inactive) | > 100 µM (inactive) | > 100 µM (inactive) | > 100 µM (inactive) |  | > 100 µM (inactive) | > 100 µM (inactive) | 66.1 µM (inactive) | > 100 µM (inactive)
7 | CC(=O)/C(=C(/Br)I)c1ccccc1 | 6.49 µM (inactive) | 2.58 µM (inactive) | 4.32 µM | 1.95 µM (inactive) | 9.04 µM (inactive) | 2.82 µM (inactive) | 18.1 µM (inactive) | 6.87 µM (inactive) | 12.4 µM (inactive) | 17.3 µM (inactive) | 13 µM (inactive) | 4.82 µM (inactive) | 3.45 µM (inactive) | 11.2 µM (inactive) | 14.1 µM (inactive) | 12 µM (inactive) | 14.8 µM (inactive) | 1.97 µM (inactive) | 10.9 µM (inactive) | 13.2 µM (inactive)
8 | COC(=O)c1ccc(CCc2cc(O)ccc2O)cc1 | 2.96 µM (inactive) | 0.847 µM (active) | 8.79 µM | 0.959 µM (active) | 5.47 µM (inactive) | 2.15 µM (inactive) | 19.2 µM (inactive) | 10.6 µM (inactive) | 2.02 µM (inactive) | 12 µM (inactive) | 13.3 µM (inactive) | 18.8 µM (inactive) | 5.94 µM (inactive) | 16.6 µM (inactive) | 12.2 µM (inactive) | 5.68 µM (inactive) | 5.52 µM (inactive) | 5.7 µM (inactive) | 8.75 µM (inactive) | 10.1 µM (inactive)
9 | CCOC(=O)C1=C(C)N(c2ccc(Cl)cc2)C2(O)C=CC(=O)C3C(=O)N(c4ccccc4)C(=O)C132 (centres undefined) | 1.28 µM (inactive) | 1.07 µM (active) | 1.82 µM | 2.76 µM (inactive) | 1.53 µM (inactive) | 3.08 µM (inactive) | 2.01 µM (inactive) | 1.66 µM (inactive) | 1.6 µM (inactive) | 2.18 µM (inactive) | 1.59 µM (inactive) | 1.78 µM (inactive) | 2.35 µM (inactive) | 1.51 µM (inactive) | 2.02 µM (inactive) | 1.76 µM (inactive) | 1.69 µM (inactive) | 2.25 µM (inactive) | 1.66 µM (inactive) | 2.09 µM (inactive)
10 | CC1=NN(C(=O)CC(=O)N(C(=O)c2ccccc2)c2ccc(Cl)cc2)C(=O)C1/N=N/c1ccc([N+](=O)[O-])cc1 (centres undefined) | > 10 µM (inactive) | > 10 µM (inactive) | > 10 µM | > 10 µM (inactive) | > 10 µM (inactive) | > 10 µM (inactive) | > 10 µM (inactive) |  | > 10 µM (inactive) | > 10 µM (inactive) | > 10 µM (inactive) | > 10 µM (inactive) | > 10 µM (inactive) | > 10 µM (inactive) | > 10 µM (inactive) | > 10 µM (inactive) | > 10 µM (inactive) | > 10 µM (inactive) | > 10 µM (inactive) | > 10 µM (inactive)
11 | CCC(=O)N/S(=N/S(=O)(=O)c1ccccc1)C(Cl)(Cl)Cl (centres undefined) | > 100 µM (inactive) | > 100 µM (inactive) | > 100 µM | > 100 µM (inactive) | > 100 µM (inactive) | > 100 µM (inactive) | > 100 µM (inactive) | > 100 µM (inactive) | > 100 µM (inactive) | > 100 µM (inactive) | > 100 µM (inactive) | > 100 µM (inactive) | > 100 µM (inactive) | > 100 µM (inactive) | > 100 µM (inactive) | > 100 µM (inactive) | > 100 µM (inactive) | > 100 µM (inactive) | > 100 µM (inactive) | > 100 µM (inactive)
12 | Cc1ccc(S(=O)(=O)n2ccc(-c3ccc4ccn(S(=O)(=O)c5ccc(C)cc5)c4c3)c2)cc1 | > 100 µM (inactive) | > 100 µM (inactive) | > 100 µM | > 100 µM (inactive) | > 100 µM (inactive) | > 100 µM (inactive) | > 100 µM (inactive) | > 100 µM (inactive) | > 100 µM (inactive) | 41 µM (inactive) | > 100 µM (inactive) | > 100 µM (inactive) | > 100 µM (inactive) |  | > 100 µM (inactive) | > 100 µM (inactive) | > 100 µM (inactive) | > 100 µM (inactive) | > 100 µM (inactive) | > 100 µM (inactive)
13 | CNC(=O)OCc1nc(N=[N+]=[N-])n(C)c1COC(=O)NC | 39.2 µM (inactive) | 28.6 µM (inactive) | 60.4 µM | 17.5 µM (inactive) | > 10 µM (inactive) | 46.5 µM (inactive) | > 100 µM (inactive) |  | > 10 µM (inactive) |  | 33.4 µM (inactive) | 26.7 µM (inactive) | 60.4 µM (inactive) | > 100 µM (inactive) | 52.7 µM (inactive) | 32.1 µM (inactive) | 69.8 µM (inactive) | > 10 µM (inactive) | 55.7 µM (inactive) | 95.5 µM (inactive)
14 | Cc1cc(S(=O)(=O)/N=C2\NCCN2Cc2ccccc2)c(S)cc1Cl | > 100 µM (inactive) | 10.5 µM (inactive) | > 100 µM | > 100 µM (inactive) | > 100 µM (inactive) | > 100 µM (inactive) | > 100 µM (inactive) | > 100 µM (inactive) |  | > 100 µM (inactive) | > 100 µM (inactive) | > 100 µM (inactive) | > 100 µM (inactive) | > 100 µM (inactive) | 76.2 µM (inactive) | 88.3 µM (inactive) | > 100 µM (inactive) | > 100 µM (inactive) | 43.7 µM (inactive) | > 100 µM (inactive)
